Key:
CB1 receptors = molecular target: T1, CB1 receptors (Mus musculus, UniProt P47746); assay: biochemical; assay type: binding
T1 construct: the complete brain (excluding the cerebellum) and the spleen were quickly dissected and kept in ice; from tissue; host or cells: mouse brain (excluding cerebellum), membrane preparation
Experimental: (§1) The affinity of the synthesized compounds towards the CB1 and CB2 cannabinoidergic receptors was evaluated in vitro by radioreceptor binding studies using the method reported hereinunder.
(§2) The technique of the receptor binding allows to establish if, and with which affinity and specificity, a specific compound binds to a particular receptor. To evaluate the affinity of a specific compound to a particular receptor it is necessary to challenge in a particular tissue preparation wherein those specific receptors are present the compound to be tested with a radioactive labelled compound whose affinity for the same receptors is known. […] The amount of radioactivity present in the receptor-compound complex allows furthermore to estimate with great accuracy the amount of compound bound to the receptor. By said method it is therefore possible to establish quickly the affinity of a new compound towards a specific receptor and thus to determine its pharmacological activity. With the same experimental protocol it is possible to evaluate the affinity of the compound towards other receptors and thus establish its specificity degree toward said other receptors.
(§3) The food and water were ad libitum.
(§4) The procedure adopted, based on the use of the compound [^3H]-CP-55,940 (New England Nuclear, Boston, Mass., USA), requires the use of the mouse brain as biological tissue for the evaluation of the affinity towards the CB1 receptors and of the mouse spleen for the affinity assay for the CB2 receptors.
(§5) The animals were sacrificed by cervical dislocation and the complete brain (excluding the cerebellum) and the spleen were quickly dissected and kept in ice.
(§6) The tissue was homogenized in 15 volumes (weight/volume) of TME buffer (50 Mm Tris, 1 mM EDTA and 3 mM MgCl2, pH 7.4) by an Ultra-Turrax and subsequently centrifuged for 10 minutes at 1086×g in a centrifuge refrigerated at 4° C. The recovered supernatant was centrifuged at 45,000×g for 30 minutes at 4° C. by using a Beckman SW41 rotor and the obtained pellet was resuspended in 50 volumes of TME.
(§7) The thus obtained membranes (50-80 μg of proteins) were incubated in the presence of 1 nM of [^3H]-CP55.940 for 1 hour at 30° C. in a final volume of 0.5 ml of TME buffer containing 5 mg/ml of bovine serum albumin (BSA). The non specific binding was measured in the presence of CP55.940 at a 1 μM concentration.
(§8) All the experiments were carried out in polypropylene test tubes pretreated with Sigma-Cote (Sigma Chemical Co. Ltd., Poole, UK) for reducing non specific binding.
(§9) In order to determine the competitive inhibition binding curves, eight different concentrations of each compound were used.
(§10) Incubation was stopped by addition of TME buffer (at 4° C.) containing 5 mg/ml of BSA, and subsequent filtration under vacuum by Whatman GFC filters pretreated with 0.5% of polyethylamine (PEI) and by using a filtering device (Brandell, Gaithersburg, Md., USA). The filters were washed 3 times with […] of Tris HCl buffer (pH 7.4, 4° C.) containing 1 mg/ml of BSA and separately placed in plastic vials containing 4 ml of scintillating liquid (Ultima Gold MV, Packard).
(§11) The radioactivity present in the filters was determined by a scintillator spectrophotometer (Tricarb® 2100, Packard, Meridien, USA).
(§12) Protein determination was carried out by the Bradford method by using the protocol and the reactants supplied by Bio-Rad (Milano, Italy).

CB2 receptors = molecular target: T2, CB2 receptors (Mus musculus, UniProt P47936); assay: biochemical; assay type: binding
T2 construct: the complete brain (excluding the cerebellum) and the spleen were quickly dissected and kept in ice; from tissue; host or cells: mouse spleen, membrane preparation
Experimental: as §1, §2, §3, §4, §5, §6, §7, §8, §9, §10, §11, §12

old DBA/2J mice = assay: Reduction of intraocular pressure (IOP) after application to the eye, TONOLab tonometer; assay type: in vivo; details: for Intraocular Pressure Decrease: versus basal IOP; for Reduction of intraocular pressure: dose 100 μg
From the text: The main risk factor in the glaucoma is represented by the high intraocular pressure (IOP). See for instance: Libby R. T. et al., Vis Neurosci. 2005 Sep.-Oct., 22(5):637-48 and Tomida I. et al., Br. J. Opthalmol. 2004 May, 88(5):708-13.
By using the animal model of old DBA/2J mice (see above) it has been evaluated the efficacy of the compound obtained in example 3.1 in reducing the IOP. As said, this compound has a good affinity towards the CB1 receptors in vitro (example 4) and a CB1 agonist action in vivo (example 5). The intraocular pressure has been determined by a TONOLab Tonometer (Tiolat Oy), as reported by M. E. Pease et al. in J. Glaucoma, 2006 December, 15(6):512-519. The compound was dispersed in the commercial emulsion Tocrisolve™, (Tocris), at a concentration of […] and applied to the eye of old DBA/2J mice (8-10 month age; basal IOP comprised between 19.0 and 22.5 mmHg). The applied emulsion volumes were such that the compound doses resulted, respectively, of 100 μg or 50 μg. WIN 55212-2 was dispersed in Tocrisolve™at the concentration of 5 mg/ml and was the reference cannabinoidergic compound. The determination of the ocular pressure was carried out every 30 minutes up to two hours starting from the administration. The obtained results (average of 6 measurements at each time for experimental groups of 8-10 animals for group/dose) are reported in Table 3. IOP decrease was expressed in percent with respect to the basal value.

[1] = tested on: mouse deferent vessel (vas deferens); assay: Ex-vivo model: electrically induced contractions of the isolated deferent vessel (vas deferens); design: species or system albino CD1 mice; details: for Activity compared with the compounds of the invention: FIG. 2; for Inhibition of the contractions induced by the electric stimulus: concentrations lower than or equal to 1×10^−6 M
From the text: The use of the isolated deferent vessel organ, as a highly sensitive basic system in an ex-vivo model for evaluating the activity of agonist CB1 compounds, has been described by Pertwee et al. in Br. J. Pharmacol., 105:980-4, 1992. This model has been used also to evaluate the properties of antagonist CB1 compounds and to distinguish antagonist CB1 derivatives from inverse agonist CB1 compounds (Rinaldi-Carmona et al., FEBS Lett., 350:240-4, 1994; Pertwee et al., Eur. J. Pharmacol., 456:99-106, 2002). […] This effect is correlated to the action on the prejunctional neuronal CB1 receptors with the consequent release inhibition, induced by electric stimuli, of contractile neurotransmitters (noradrenaline and ATP) (Schlicker and Kathmann, Trends Pharmacol. Sci., 22:565-72, 2001). The inhibition of the contractions induced by the electric stimulus on the deferent vessel in the presence of agonist (or partial agonist) CB1 compounds are expressed as % of contraction inhibition. Said % contraction inhibition is calculated by the ratio between the contraction amplitude determined in the presence of a given concentration of the compound and that detected in its absence (basal value). The curve of the “% of contraction inhibition” as a function of the logarithm of the concentration of agonist (or partial agonist) CB1 compounds, is sigmoidal. The use of the model for the evaluation of antagonist CB1 compounds is based on the evaluation of their efficacy in inhibiting the action of the deferent vessel of agonist (or partial agonist) CB1 compounds. The inhibition is expressed by a shifting towards the right of the curves % of inhibition of contractions/logarithm of the concentration of the agonist CB1 compound, with increasing the concentration of the antagonist CB1 compound.
As reported in the literature, the experimentation has been carried out by using albino CD1 mice weighing 30-40 grams. The mice deferent vessel was recovered and transferred into an instrument for separated organs supplied by the Firm Ugo Basile (Comerio, Italy). The initial tension was of 0.5 g. The procedure adopted is reported in Pertwee et al. in Br. J. Pharmacol., 110:1483-1490, 1993. In particular the procedure and instruments as described by S. Ruiu et al. in J.P.E.T., Vol. 306, 2003, 363-370, have been used.
In a subsequent experiment it was shown that the compound activity was antagonized by the antagonist CB1 compound N-piperidinyl-[8-chloro-1-(2,4-dichlorophenyl)-1,4,5,6-tetrahydrobenzo[6,7]cyclohepta[1,2-c]pyrazol-3-carboxamide], described by S. Ruiu et al. in J.P.E.T., Vol. 306, 2003, 363-370. The experiment was carried out by adding the antagonist (concentration in bath 1 nM) 20 minutes before the first addition of the compound of the invention.

patients = details: cited from earlier work
men = details: local administration in the eye; cited from earlier work
[2] = 50 μg to the eye in Tocrisolve, 30 minutes
[3] = 50 μg to the eye in Tocrisolve, 60 minutes
[4] = 50 μg to the eye in Tocrisolve, 90 minutes
[5] = 50 μg to the eye in Tocrisolve, 120 minutes
[6] = 100 μg to the eye in Tocrisolve, 30 minutes
[7] = 100 μg to the eye in Tocrisolve, 60 minutes
[8] = 100 μg to the eye in Tocrisolve, 90 minutes
[9] = 100 μg to the eye in Tocrisolve, 120 minutes

T1 sequence (P47746 whole entry): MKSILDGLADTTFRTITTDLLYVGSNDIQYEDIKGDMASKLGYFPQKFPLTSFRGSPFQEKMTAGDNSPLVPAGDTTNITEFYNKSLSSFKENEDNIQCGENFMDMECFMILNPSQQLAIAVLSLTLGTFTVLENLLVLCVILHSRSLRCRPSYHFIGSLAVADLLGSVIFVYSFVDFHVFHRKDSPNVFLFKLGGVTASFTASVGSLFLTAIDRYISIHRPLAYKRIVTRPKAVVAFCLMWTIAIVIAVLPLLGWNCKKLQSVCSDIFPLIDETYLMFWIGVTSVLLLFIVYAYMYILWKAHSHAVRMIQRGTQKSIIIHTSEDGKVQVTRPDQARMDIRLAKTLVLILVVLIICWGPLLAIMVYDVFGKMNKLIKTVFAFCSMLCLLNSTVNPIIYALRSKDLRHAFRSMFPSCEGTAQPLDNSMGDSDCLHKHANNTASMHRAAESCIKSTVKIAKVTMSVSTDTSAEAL
T2 sequence (P47936 whole entry): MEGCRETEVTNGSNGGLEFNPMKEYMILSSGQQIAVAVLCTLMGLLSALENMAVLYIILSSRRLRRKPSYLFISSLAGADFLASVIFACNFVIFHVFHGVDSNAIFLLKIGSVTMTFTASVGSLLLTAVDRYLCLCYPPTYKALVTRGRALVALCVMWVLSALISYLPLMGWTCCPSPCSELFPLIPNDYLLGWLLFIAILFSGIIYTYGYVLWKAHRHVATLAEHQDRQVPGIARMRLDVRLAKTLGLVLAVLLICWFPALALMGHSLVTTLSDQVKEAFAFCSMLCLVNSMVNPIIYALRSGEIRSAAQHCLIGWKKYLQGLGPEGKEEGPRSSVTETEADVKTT

| Structure (SMILES) | Ki (CB1 receptors) [nM] | Ki (CB2 receptors) [nM] | Intraocular Pressure Decrease (old DBA/2J mice; [2]) [%] | Intraocular Pressure Decrease (old DBA/2J mice; [3]) [%] | Intraocular Pressure Decrease (old DBA/2J mice; [4]) [%] | Intraocular Pressure Decrease (old DBA/2J mice; [5]) [%] | Intraocular Pressure Decrease (old DBA/2J mice; [6]) [%] | Intraocular Pressure Decrease (old DBA/2J mice; [7]) [%] | Intraocular Pressure Decrease (old DBA/2J mice; [8]) [%] | Intraocular Pressure Decrease (old DBA/2J mice; [9]) [%] | Reduction of intraocular pressure (old DBA/2J mice) | Activity compared with the compounds of the invention [1] | Inhibition of the contractions induced by the electric stimulus [1] | melting point [°C] | Reduction of weight and metabolic and/or cardiovascular risk factors (patients; patients with metabolic syndrome and/or dyslipidemia) | Reduction of metabolic and/or cardiovascular risk factors (patients; patients with type 2 diabetes) | IOP reduction in men (men) |
| --- | --- | --- | --- | --- | --- | --- | --- | --- | --- | --- | --- | --- | --- | --- | --- | --- | --- |
| Cc1ccc(Cn2nc(C(=O)NC3CC(C)CCC3C(C)C)c3c2-c2sc(C)cc2C3)cc1 (stereo not shown) [Compound (XC), N-menthyl-6-methyl-1-(4′-methylbenzyl)-1,4-dihydro-thieno[3′,2′:4,5]cyclopenta[1,2-c]pyrazol-3-carboxamide] | 33 ± 8.2 | 2.5 ± 0.3 | 2.9 | 2.2 | 0.8 | 1.5 | 22.2 | 22.4 | 25.0 | 16.7 | able to significantly reduce the intraocular pressure | lower than that of the compounds of the invention | able to significantly inhibit the contractions | – | – | – | – |
| Cc1cc2c(s1)-c1c(c(C(=O)NC3C4(C)CCC(C4)C3(C)C)nn1-c1ccc(Cl)cc1Cl)C2 (stereo not shown) [Compound (XD), N-fenchyl-1-(2′,4′-dichlorophenyl)-6-methyl-1,4-dihydro-thieno[3′,2′:4,5]cyclopenta[1,2-c]pyrazol-3-carboxamide] | 43.3 ± 5.5 | 15 ± 3.2 | 3.0 | 2.0 | 0.5 | 1.0 | 16.6 | 14.0 | 11.2 | 11.1 | able to significantly reduce the intraocular pressure | lower than that of the compounds of the invention | able to significantly inhibit the contractions | – | – | – | – |
| Cc1csc2c1Cc1c(C(=O)NCC3CCC4CC3C4(C)C)nn(-c3ccc(Cl)cc3Cl)c1-2 (stereo not shown) [Example 3.7, N-myrtanyl-5-methyl-1-(2′,4′-dichlorophenyl)-1,4-dihydro-thieno[3′,2′:4,5]cyclopenta[1,2-c]pyrazol-3-carboxamide] | 919 ± 226 | 4.5 ± 0.8 | – | – | – | – | – | – | – | – | – | – | – | 112 to 113 | – | – | – |
| Cc1c(C(=O)NN2CCCCC2)nn(-c2ccc(Cl)cc2Cl)c1-c1ccc(Cl)cc1 [SR141716A] | – | – | – | – | – | – | – | – | – | – | – | – | – | – | effective in reducing both weight and metabolic and/or cardiovascular risk factors | effectiveness of Rimonabant in reducing metabolic and/or cardiovascular risk factors has been shown | – |
| Cc1c(C(=O)c2cccc3ccccc23)c2cccc3c2n1[C@H](CN1CCOCC1)CO3 [WIN 55212-2] | – | – | 4.3 | 3.0 | 2.0 | 1.9 | 23.1 | 21.3 | 18.1 | 13.2 | – | – | – | – | – | – | significant IOP reduction |

Source: patent US20100215759A1 (priority 2009, published 2010)
